Measured values reported in patent publication US8323956B2, “Distal tip of biosensor transducer comprising enzyme for deamination” (Colorado State University Research Foundation, priority 2001, dated 2012).

What was measured:
melamine deaminase TriA = molecular target: T1, melamine deaminase TriA (Paracidovorax citrulli, UniProt Q9EYU0); assay: TriA (melamine deaminase) biosensor response, cells in calcium alginate on pH-sensitive optical fiber; format: cell-based, Escherchia coli DH5α pJS3
T1 construct: expressed in transfected cells; host or cells: Escherichia coli DH5α pJS3
T1 sequence (Q9EYU0 whole entry): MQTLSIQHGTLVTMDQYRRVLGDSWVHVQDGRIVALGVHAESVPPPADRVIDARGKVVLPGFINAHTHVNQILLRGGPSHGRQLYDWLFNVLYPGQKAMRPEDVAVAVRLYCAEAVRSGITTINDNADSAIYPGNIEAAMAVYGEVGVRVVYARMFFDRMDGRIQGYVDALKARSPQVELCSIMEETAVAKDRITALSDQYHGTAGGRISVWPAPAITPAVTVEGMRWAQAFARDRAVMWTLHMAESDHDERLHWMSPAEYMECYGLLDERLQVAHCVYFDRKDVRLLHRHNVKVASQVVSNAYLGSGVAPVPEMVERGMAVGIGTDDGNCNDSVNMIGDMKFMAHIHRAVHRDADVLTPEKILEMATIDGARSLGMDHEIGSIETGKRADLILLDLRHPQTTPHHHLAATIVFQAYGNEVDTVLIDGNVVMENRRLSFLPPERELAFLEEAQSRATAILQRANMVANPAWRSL
From the text: Cells of Escherchia coli DH5α pJS3 (Seffernick et al., J. Bact. 183 (8), 2405-2410, 2001) were immobilized in calcium alginate on the tip of an optical fiber coated with a PVA-fluoresceinamine conjugate, a pH-sensitive fluorophore. The plasmid pJS3 contains the gene triA, and thus the E. coli cells can express the melamine deaminase TriA, which catalyzes the cleavage of one of the amine groups. The products of this reaction are ammeline (2-hydroxy-4,6-diamino-s-triazine) and ammonia.
The release of ammonia led to an increase in pH on the tip of the optical fiber, which was detected as an increase in the fluorescence of fluoresceinamine (FIG. 21).
The melamine deaminase biosensor was also responsive to the related amine-containing chemical 2-chloro-4,6-diamino-s-triazine (CAAT) (Table 12 and FIG. 22).

[1] = molecular target: T2, LinB haloalkane dehalogenase (Sphingobium indicum, UniProt D4Z2G1); assay: LinB biosensor sensitivity for halogenated hydrocarbons
T2 sequence (D4Z2G1 1-296): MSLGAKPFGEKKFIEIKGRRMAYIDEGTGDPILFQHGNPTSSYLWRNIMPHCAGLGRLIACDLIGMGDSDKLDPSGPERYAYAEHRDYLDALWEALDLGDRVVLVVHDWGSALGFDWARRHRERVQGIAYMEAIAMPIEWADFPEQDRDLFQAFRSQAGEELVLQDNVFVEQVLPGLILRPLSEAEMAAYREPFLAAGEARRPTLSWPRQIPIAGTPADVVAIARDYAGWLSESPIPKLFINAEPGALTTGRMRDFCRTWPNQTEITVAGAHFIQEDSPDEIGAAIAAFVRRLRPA
From the text: The haloalkane dehalogenase LinB was used to develop biosensors for several halogenated hydrocarbons.

[2] = molecular target: T2, LinB haloalkane dehalogenase; conditions: reported by Damborsky et al. 2001; cited from earlier work
E. coli pAQN (linB) = molecular target: T3, E. coli pAQN (linB) (Sphingobium indicum, UniProt D4Z2G1); assay: Biosensor response to 1,2-dibromoethane measured repeatedly over 50 days; format: cell-based; conditions: 5 ppb of 1,2-dibromoethane, in more than 50 days
T3 construct: expressed in transfected cells; host or cells: E. coli carrying plasmid pAQN
Procedure: FIG. 17 depicts a biosensor response to 5 μg/L 1,2-dibromoethane using E. coli pAQN (linB) as the biocomponent, measured repeatedly over 50 days, according to an embodiment.
The release of a proton from the dehalogenation reaction is detected as a pH change at the end of the optical fiber, and thus as a change in fluorescence intensity (FIG. 14). Fiber optic biosensors for 1,2-dichloroethane (DCA), ethylene dibromide (EDB), atrazine, 1-chlorohexane and Lindane (γ-hexachlorocyclohexane) have been developed (Campbell, 1998; Das, N., Development and Characterization of a Biosensor for Atrazine in Groundwater, Chemical Engineering. 2000, Colorado State University: Fort Collins). These biosensors have linear response ranges over several orders of magnitude in concentration, and detection in the ppt (ng/L) range has been achieved (FIG. 15). […] This fact, and the stability of the enzymes, allows the biosensors to retain activity for many weeks. In one test (FIG. 16), the biosensor response to 5 ppb of 1,2-dibromoethane declined by only 20% in more than 50 days. Sensitive measurement is still possible even at the end of the test; only a recalibration is required.

SMILES | Response (count) (melamine deaminase TriA; 0.12 mg/L) | Response time (melamine deaminase TriA; 0.12 mg/L) | Response (count) (melamine deaminase TriA; 1.21 mg/L) | Response time (melamine deaminase TriA; 1.21 mg/L) | Biosensor sensitivity (ΔV/ppb analyte) [1] | LinB activity (% of 1-chlorobenzene rate) [2] | decline of biosensor response (E. coli pAQN (linB))
Nc1nc(N)nc(N)n1 [Melamine, 2,4,6-triamino-1,3,5-triazine] | 1000 count | 20 h | 2700 count | 16 h | – | – | –
BrCCBr [1,2-dibromoethane] | – | – | – | – | 0.29 ΔV/ppb analyte | 355% | 20%
CCCCCCCl [1-chlorohexane] | – | – | – | – | 0.21 ΔV/ppb analyte | 145% | –
Nc1nc(N)nc(Cl)n1 [CAAT, 2-chloro-4,6-diamino-s-triazine] | 150 count | 2 h | 800 count | 10 h | – | – | –
